Converted amounts (≈) assume the structure as drawn. Like-named read-outs stand apart in the source and are kept apart here. Marks after values point to notes of the source that are not given here.
Legend:
[1] = target: T1, FabH derived from E. coli (ecFabH) (Escherichia coli, UniProt P0A6R0); experiment: FabH enzyme assay (coupled trichloroacetic acid precipitation assay), ecFabH; format: biochemical; details: 5 μM of test compound; read-out: Percent inhibition of FabH derived from E. coli, ecFabH (%)
T1 construct: polyhistidine (N); made in house; host or cells: E. coli
T1 sequence (P0A6R0 1-317): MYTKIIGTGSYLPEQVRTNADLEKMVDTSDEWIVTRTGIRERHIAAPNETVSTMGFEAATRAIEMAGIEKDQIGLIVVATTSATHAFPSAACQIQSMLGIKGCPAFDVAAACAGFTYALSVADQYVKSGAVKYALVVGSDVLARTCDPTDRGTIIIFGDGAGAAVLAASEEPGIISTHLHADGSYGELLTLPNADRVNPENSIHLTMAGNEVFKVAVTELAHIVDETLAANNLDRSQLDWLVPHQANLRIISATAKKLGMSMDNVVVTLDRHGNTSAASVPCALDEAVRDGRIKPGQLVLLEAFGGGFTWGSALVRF

[2] = system: S. aureus (ATCC 25923); experiment: microbe, parasite or virus in culture; format: cell-based, Staphylococcus aureus; details: for zone of inhibition at 20 µg/disc: Staphylococcus aureus, ATCC25923; for zone of inhibition at 20 µg/disc / Zones of growth inhibition of S. aureus (ATCC 25923) / Zones of growth inhibition of S. aureus (ATCC 25923), areas of partial inhibition: 24 h, 37° C.
[3] = system: methicillin-resistant S. aureus (MRSA); experiment: microbe, parasite or virus in culture; format: cell-based, Staphylococcus aureus; details: for zone of inhibition at 20 µg/disc: Staphylococcus aureus, MRSA, read-out: Average zones of growth inhibition of MRSA (USF-652-659, 919-920)
[4] = system: S. aureus (ATCC 25923); experiment: Agar dilution minimum inhibitory concentration (MIC), S. aureus; format: cell-based, Staphylococcus aureus; details: for MIC: Staphylococcus aureus
[5] = system: B. anthracis (USF 848); experiment: microbe, parasite or virus in culture; format: cell-based, Bacillus anthracis; details: 24 h, 37° C.; for zone of inhibition at 20 µg/disc: Bacillus anthracis
[6] = system: B. anthracis (USF 848); experiment: microbe, parasite or virus in culture; format: cell-based, Bacillus anthracis; details: for MIC: Bacillus anthracis, read-out: Minimum inhibitory concentration (MIC) against B. anthracis (USF 848)
[7] = system: E. coli (K12; ATCC 23590); experiment: Kirby-Bauer zones of inhibition, E. coli; format: cell-based, Escherichia coli; details: for Zone of Inhibition (mm), E. coli, zones of partial inhibition / Zone of Inhibition (mm), E. coli: K12 strain, ATCC 23590; for Zone of Inhibition (mm), E. coli, zones of partial inhibition: number in parentheses; for Zone of Inhibition (mm), E. coli: number outside parentheses; for zone of inhibition against E. coli: full or partial not stated
[8] = system: E. coli (K12; ATCC 23590); experiment: Minimum inhibitory concentration (MIC), E. coli; format: cell-based; details: Escherichia coli, ATCC23590, read-out: MIC (μg/mL) against E. coli
[9] = system: S. aureus (ATCC 25923); details: MSSA ATCC 25923; data taken from ref. 6; cited from earlier work
[10] = system: methicillin-resistant S. aureus (MRSA); details: MRSA ATCC 43300; data taken from ref. 6; cited from earlier work
[11] = system: S. aureus (ATCC 25923); details: MSSA ATCC 25923; data from ref. 6 (PenG, 2g) or ref. 52 (vancomycin); cited from earlier work
[12] = system: MRSA (ATCC 43300); details: cited from earlier work
[13] = read-out: Zones of growth inhibition of S. aureus (ATCC 25923)
[14] = read-out: Zones of growth inhibition of S. aureus (ATCC 25923), areas of partial inhibition
[15] = ATCC25923, serial dilution in 24-well plate, NCCLS, read-out: Minimum inhibitory concentration (MIC) against S. aureus (ATCC 25923)
[16] = read-out: Zones of growth inhibition of B. anthracis (USF 848)
[17] = read-out: Zones of growth inhibition of B. anthracis (USF 848), areas of partial growth inhibition
[18] = ATCC 25923 / MSSA, read-out: MIC (MSSA)

Structure (SMILES) | inhibition at 5 µM [1] | zone of inhibition at 20 µg/disc [2, 13] | zone of inhibition at 20 µg/disc [2, 14] | zone of inhibition at 20 µg/disc ([3]; 24 h, 37° C.) | MIC [4, 15] | zone of inhibition at 20 µg/disc [5, 16] | zone of inhibition at 20 µg/disc [5, 17] | MIC [6] | Zone of Inhibition (mm), E. coli, zones of partial inhibition [7] | Zone of Inhibition (mm), E. coli [7] | MIC [8] | Zone (MSSA) [2] | Zone (MRSA) [3] | further results
CSSc1ccc([N+](=O)[O-])cc1 [Compound 38a, p-Nitrophenyl Methyl Disulfide] | 94% | 30 mm | 35 mm | 23 mm | 16 µg/mL (≈ 79.5 µM) | 47 mm | 54 mm | 0.25 µg/mL (≈ 1.24 µM) | 24 mm | 17 mm | 16 µg/mL (≈ 79.5 µM) |  |  | melting point: 29 to 32 °C
CCSSc1ccc([N+](=O)[O-])cc1 [Compound 38b, Ethyl p-nitrophenyl Disulfide] | 98% | 47 mm | 54 mm | 38 mm | 32 µg/mL (≈ 149 µM) | 56 mm | 67 mm | 0.25 µg/mL (≈ 1.16 µM) | 23 mm | 15 mm | 16 µg/mL (≈ 74.3 µM) |  |  | 
CC(C)SSc1ccc([N+](=O)[O-])cc1 [Compound 38c, Isopropyl p-nitrophenyl disulfide] | 98.5% | 68 mm | 85 mm | 75 mm | 0.4 µg/mL (≈ 1.74 µM) | 71 mm |  | < 0.125 µg/mL | (11) mm |  | 96 µg/mL (≈ 419 µM) | 47 mm | 70 mm | MIC [4, 18]: 0.8 µg/mL (≈ 3.49 µM)
CCC(C)SSc1ccc([N+](=O)[O-])cc1 (stereo not shown) [Compound 38d, Sec-Butyl p-nitrophenyl Disulfide] | 96% | 47 mm | 68 mm | 54 mm | 0.8 µg/mL (≈ 3.29 µM) | 56 mm | 62 mm | < 0.125 µg/mL | (10) mm |  | 128 µg/mL (≈ 526 µM) | 67 mm | 54 mm | MIC [4, 18]: 0.4 µg/mL (≈ 1.64 µM)
CCCSSc1ccc([N+](=O)[O-])cc1 [Compound 38e, p-Nitrophenyl n-propyl Disulfide] | 91% | 36 mm | 43 mm | 38 mm | 24 µg/mL (≈ 105 µM) | 49 mm | 57 mm | 1 µg/mL (≈ 4.36 µM) | 21 mm | 16 mm | 64 µg/mL (≈ 279 µM) |  |  | 
CCCCSSc1ccc([N+](=O)[O-])cc1 [Compound 38f, n-Butyl p-nitrophenyl Disulfide] | 93% | 41 mm | 53 mm | 28 mm | 32 µg/mL (≈ 131 µM) | 44 mm | 52 mm | 1 µg/mL (≈ 4.11 µM) | 22 mm | 15 mm | 96 µg/mL (≈ 394 µM) |  |  | 
CSSc1cccc([N+](=O)[O-])c1 [Compound 43a, Methyl m-nitrophenyl Disulfide] |  | 27 mm | 36 mm | 15 mm | 16 µg/mL (≈ 79.5 µM) | 43 mm |  | 2 µg/mL (≈ 9.94 µM) |  |  |  |  |  | Zones of growth inhibition of S. aureus (ATCC 25923) [2]: 27 (36) mm; Zones of growth inhibition of S. aureus (ATCC 25923), areas of partial inhibition [2]: 27 (36) mm; zone of inhibition against E. coli [7]: 10 mm
CSSc1ccccc1[N+](=O)[O-] [Compound 44a, Methyl o-nitrophenyl Methyl Disulfide] |  |  |  |  |  |  |  |  |  |  |  |  |  | Zones of growth inhibition of S. aureus (ATCC 25923) [2]: 34(37) mm; Zones of growth inhibition of S. aureus (ATCC 25923), areas of partial inhibition [2]: 34(37) mm; Average zones of growth inhibition of MRSA (USF-652-659, 919-920) ([3]; 24 h, 37° C.): 26 mm; Minimum inhibitory concentration (MIC) against S. aureus (ATCC 25923) ([4]; serial dilution in 24-well plate, NCCLS): 64 µg/mL (≈ 318 µM); Zones of growth inhibition of B. anthracis (USF 848) [5]: 31 mm; Minimum inhibitory concentration (MIC) against B. anthracis (USF 848) [6]: 4 µg/mL (≈ 19.9 µM); zone of inhibition against E. coli [7]: 9 mm
CC1(C)S[C@@H]2[C@H](NC(=O)Cc3ccccc3)C(=O)N2[C@H]1C(=O)O [PenG., penicillin G, reference compound] |  |  |  |  |  |  |  |  |  |  |  |  |  | Zone (MSSA) [9]: 33 mm; Zone (MRSA) [10]: 14 mm; MIC (MSSA) [11]: 0.03 µg/mL (≈ 0.0897 µM); MIC (MRSA) ([12]; MRSA ATCC 43300, data taken from ref. 6): 64 µg/mL (≈ 191 µM)
CN[C@H](CC(C)C)C(=O)N[C@H]1C(=O)N[C@@H](CC(N)=O)C(=O)N[C@H]2C(=O)N[C@H]3C(=O)N[C@H](C(=O)N[C@H](C(=O)O)c4cc(O)cc(O)c4-c4cc3ccc4O)[C@H](O)c3ccc(c(Cl)c3)Oc3cc2cc(c3O[C@@H]2O[C@H](CO)[C@@H](O)[C@H](O)[C@H]2O[C@H]2C[C@](C)(N)[C@H](O)[C@H](C)O2)Oc2ccc(cc2Cl)[C@H]1O [Vanc., Vancomycin, reference compound] |  |  |  |  |  |  |  |  |  |  |  | 27 mm | 22 mm | MIC (MSSA) [11]: 0.78^d μg/mL; MIC (MRSA) ([12]; MRSA 67, as reported by ref. 52): 0.39^d μg/mL
